Literature values in patent US6040300A, “Method of preventing colon cancer with vitamin D3 analogues” (Arch Development Corporation, priority 1995, dated 2000).

How the values were obtained:
[1] = test system: chemically-induced colonic tumors; conditions: in vivo; cited from earlier work
[2] = test system: c-myc mRNA; conditions: HL-60 cells; cited from earlier work
[3] = test system: malignant cell lines, including several derived from human colon adenocarcinomas; conditions: in vitro; cited from earlier work
[4] = test system: ornithine decarboxylase (ODC); conditions: induced by various chemical carcinogens, preneoplastic period; cited from earlier work
[5] = test system: suppressor T cell; conditions: cited from earlier work
[6] = test system: class II antigens; conditions: monocytes and lymphocytes; cited from earlier work
[7] = test system: MHC class I and II antigens; conditions: colonic tumor formation, AOM model; cited from earlier work
[8] = test system: AOM metabolism; conditions: cited from earlier work
[9] = test system: colon carcinogenesis induced by 1,2-dimethylhydrazine (DMH); conditions: dietary supplementation; high fat diet; cited from earlier work

C=C1/C(=C\C=C2/CCC[C@]3(C)[C@@H]([C@H](C)CCCC(C)C)CC[C@@H]23)C[C@@H](O)C[C@@H]1O [1α(OH)D3, 1α-hydroxyvitamin D3]
protection against chemically-induced colonic tumors [1]: protect against the development of chemically-induced colonic tumors

C=C1/C(=C\C=C2/CCC[C@]3(C)[C@@H]([C@H](C)CCCC(C)(C)O)CC[C@@H]23)C[C@@H](O)C[C@@H]1O [1α,25(OH)2 D3, 1α,25-dihydroxyvitamin D3]
c-myc mRNA expression [2]: decrease c-myc mRNA expression in HL-60 cells | protection against chemically-induced colonic tumors [1]: protect against the development of chemically-induced colonic tumors | inhibition of proliferation [3]: inhibit the proliferation of a number of malignant cell lines in vitro | inhibition of increase in colonic mucosal ODC [4]: inhibit the increase in colonic mucosal ODC | suppressor T cell activity [5]: promote suppressor T cell activity | expression of class II antigens [6]: effect the expression of class II antigens by monocytes and lymphocytes

CN1C(C(=O)Nc2ccccn2)=C(O)c2ccccc2S1(=O)=O [piroxicam]
chemopreventive effect paralleled by MHC antigen alterations [7]: paralleled by alterations in the expression of these antigens

c1cn[nH]c1 [pyrazole]
inhibition of AOM metabolism [8]: inhibition of AOM metabolism

C[C@H](CCC(=O)O)[C@H]1CC[C@H]2[C@@H]3[C@@H](O)C[C@@H]4C[C@H](O)CC[C@]4(C)[C@H]3CC[C@]12C [ursodeoxycholic acid]
chemopreventive effect paralleled by MHC antigen alterations [7]: paralleled by alterations in the expression of these antigens

C=C1CC[C@H](O)C/C1=C/C=C1\CCC[C@]2(C)[C@@H]([C@H](C)CCCC(C)C)CC[C@@H]12 [vitamin D3, cholecalciferol]
inhibition of colon carcinogenesis incidence [9]: inhibit the incidence of colon carcinogenesis
